Here are results for 9 molecules from patent EP4563146A1 (IRBM S.P.A., priority 2023, dated 2025).

Test [1] deals with Japanese encephalitis virus (JEV)-NS2B-NS3 protease (Japanese encephalitis virus, UniProt P32886, DEL1469-1493). Put plainly: JEV protease inhibition assay. The class given is biochemical.
For test [2], the system named is ZIKV replicon. The test can be described thus: ZIKV replication inhibition assay (NanoLuc replicon in Vero cells). To be noted: 72 h, read-out: ZIKA Cell_Nanoluc.
The target in test [3] is T1, West Nile Virus (WNV) NS2B-NS3 protease (West Nile virus, UniProt Q9Q6P4).
T1 construct: NS2B1423-1470); purchased R&D 2907-SE-020
Put plainly: WNV protease inhibition assay. The class given is biochemical. To be noted: Table 4; letter codes for IC50. From the text:
WNV protease inhibition assay

The mark [4] stands for this setting: 600 nM enzyme, 10 µM Pyr-RTKR-AMC substrate, 25 °C, read-out: JEV - NS3 protease.
[5] abbreviates: Vero cells with stable ZIKV replicon, Nano-Glo readout.

Read-outs that look alike come from different tables or passages of the source.

For the molecule `NC[C@H]1CC[C@@H]([n+]2cc([N-]C(=O)Nc3cc(N4CCC(c5ccccc5)C4=O)cc(C(F)(F)F)c3)on2)CC1` (stereo partly drawn) [Example 119, (3-((1S,4S)-4-(Aminomethyl)cyclohexyl)-1,2,3-oxadiazol-3-ium-5-yl)((3-(2-oxo-3-phenylpyrrolidin-1-yl)-5-(trifluoromethyl)phenyl)-carbamoyl)amide], the IC50 in test [1] was in the range of 1 to 20 µM. Also, the EC50 in test [2] (Zika virus, Vero) lay within 1 to 20 µM.

Turning to `O=C([N-]c1c[n+]([C@H]2CC[C@@H](CNCC(F)(F)F)CC2)no1)Nc1cc(N2CCC(c3ccccc3)C2=O)cc(C(F)(F)F)c1` (stereo partly drawn) [Example 135, ((3-(2-Oxo-3-phenylpyrrolidin-1-yl)-5-(trifluoromethyl)phenyl)carbamoyl)(3-((1S,4S)-4-(((2,2,2-trifluoroethyl)amino)methyl)-cyclohexyl)-1,2,3-oxadiazol-3-ium-5-yl)amide], the IC50 in test [1] was greater than 20 µM. In addition, in test [2] (Zika virus, Vero), the EC50 is 1 to 20 µM.

For `CN(C)C[C@H]1CC[C@@H]([n+]2cc([N-]C(=O)Nc3cc(N4CCC(c5ccccc5)C4=O)cc(C(F)(F)F)c3)on2)CC1` (stereo partly drawn) [Example 138, (3-((1S,4S)-4-((Dimethylamino)methyl)-cyclohexyl)-1,2,3-oxadiazol-3-ium-5-yl)((3-(2-oxo-3-phenylpyrrolidin-1-yl)-5-(trifluoromethyl)-phenyl)carbamoyl)amide], the IC50 in test [1] fell in the range of 1 to 20 µM. For the same molecule, the EC50 in test [2] (Zika virus, Vero) was 1 to 20 µM.

With `O=C([N-]c1c[n+](C[C@H]2CC[C@@H](CNCC(F)(F)F)CC2)no1)Nc1cc(N2CCC(c3ccccc3)C2=O)cc(C(F)(F)F)c1` (stereo partly drawn) [Example 139, ((3-(2-Oxo-3-phenylpyrrolidin-1-yl)-5-(trifluoromethyl)phenyl)carbamoyl)(3-(((1s,4s)-4-(((2,2,2-trifluoroethyl)amino)methyl)cyclohexyl)-methyl)-1,2,3-oxadiazol-3-ium-5-yl)amide], the IC50 in test [1] was greater than 20 µM. Moreover, the EC50 in test [2] (Zika virus, Vero) lay within 1 to 20 µM.

The molecule `N[C@H]1CC[C@H](C[n+]2cc([N-]C(=O)Nc3cc(N4CC[C@H](c5ccccc5)C4=O)cc(C(F)(F)F)c3)on2)CC1` [Example 143, (3-(((1R,4R)-4-Aminocyclohexyl)methyl)-1,2,3-oxadiazol-3-ium-5-yl)((3-((R)-2-oxo-3-phenylpyrrolidin-1-yl)-5-(trifluoromethyl)-phenyl)carbamoyl)amide] had an IC50 in test [1] of 1 to 20 µM. For the same molecule, the EC50 in test [2] (Zika virus, Vero) was greater than 20 µM.

In the case of `O=C([N-]c1c[n+](C[C@H]2CC[C@H](NCC(F)(F)F)CC2)no1)Nc1cc(N2CC[C@H](c3ccccc3)C2=O)cc(C(F)(F)F)c1` [Example 144, ((3-((R)-2-Oxo-3-phenylpyrrolidin-1-yl)-5-(trifluoromethyl)phenyl)carbamoyl)(3-(((1r,4r)-4-((2,2,2-trifluoroethyl)amino)cyclohexyl)-methyl)-1,2,3-oxadiazol-3-ium-5-yl)amide], in test [1], the IC50 fell in the range of 1 to 20 µM. In addition, the EC50 in test [2] (Zika virus, Vero) lay within 0.1 to 1 µM.

As for `CN(C)C[C@H]1CC[C@H]([n+]2cc([N-]C(=O)Nc3cc(NC(=O)Cc4ccccc4)cc(C(F)(F)F)c3)on2)CC1` [Example 147, (3-((1R,4R)-4-((Dimethylamino)methyl)-cyclohexyl)-1,2,3-oxadiazol-3-ium-5-yl)((3-(2-phenylacetamido)-5-(trifluoromethyl)phenyl)-carbamoyl)amide], the IC50 in test [3] is less than 0.1 µM; in test [1] (setting [4]) it was 1 to 20 µM. Moreover, the EC50 in test [2] (Zika virus, Vero) lay in the range of 1 to 20 µM.

For `CN(C)C[C@H]1CC[C@H]([n+]2cc([N-]C(=O)Nc3cc(NC(=O)Cc4ccc5c(c4)OCO5)cc(C(F)(F)F)c3)on2)CC1` [Example 154, ((3-(2-(Benzo[d][1,3]dioxol-5-yl)acetamido)-5-(trifluoromethyl)phenyl)carbamoyl)(3-((1R,4R)-4-((dimethylamino)methyl)cyclohexyl)-1,2,3-oxadiazol-3-ium-5-yl)amide], the IC50 in test [3] is 1 to 20 µM; in test [1] (setting [4]), greater than 20 µM. Besides, the EC50 in test [2] (setting [5]) is greater than 20 µM.

Consider “((3-Cyclopropyl-5-(2-(phenylsulfonyl)-acetamido)phenyl)carbamoyl)(3-((1R,4R)-4-((dimethylamino)methyl)cyclohexyl)-1,2,3-oxadiazol-3-ium-5-yl)amide [Example 150]”, for which the IC50 in test [3] was less than 0.1 µM; in test [1] (setting [4]), 1 to 20 µM. In addition, in test [2] (setting [5]), the EC50 was in the range of 1 to 20 µM.
